# Measured values published in ChEMBL document CHEMBL1129883, “Synthesis and cytotoxicity of 5-deazaflavins containing o- and p-quinone moieties” (Bioorg Med Chem Lett, 1997).
# Assays:
# KB = test: In vitro cytotoxicity determined against human epidermoid carcinoma KB cells by MTT assay; format: functional, cell-based
# L1210 = test: In vitro cytotoxicity determined against murine leukemia L1210 cells by MTT assay; format: functional, cell-based; details: Mus musculus
structure (smiles),measurement,setting,value
CCn1c2nc(=O)n(C)c(=O)c-2cc2c3ccccc3cc(OC)c21,IC50,KB,> 50000 nM
same,IC50,L1210,> 50000 nM
CCCCCCCCn1c2nc(=O)n(C)c(=O)c-2cc2c1C(=O)C(OC)=CC2=O,IC50,KB,5800 nM
same,IC50,L1210,400 nM
CCCCn1c2nc(=O)n(C)c(=O)c-2cc2c1C(=O)C(OC)=CC2=O,IC50,KB,900 nM
same,IC50,L1210,1200 nM
CCCCCCCCn1c2nc(=O)n(-c3ccccc3)c(=O)c-2cc2c1C(=O)C(OC)=CC2=O,IC50,KB,1000 nM
same,IC50,L1210,1800 nM
CCCCn1c2nc(=O)n(C)c(=O)c-2cc2c1C(=O)C(=O)c1ccccc1-2,IC50,KB,200 nM
same,IC50,L1210,400 nM
CCCCCCCCn1c2nc(=O)[nH]c(=O)c-2cc2c1C(=O)C(=O)c1ccccc1-2,IC50,KB,3200 nM
same,IC50,L1210,4200 nM
CCCCCCCCCCCCn1c2nc(=O)[nH]c(=O)c-2cc2c1C(=O)C(OC)=CC2=O,IC50,KB,12700 nM
same,IC50,L1210,2500 nM
CCCCCCCCn1c2nc(=O)n(C)c(=O)c-2cc2c1C(=O)C(=O)c1ccccc1-2,IC50,KB,1700 nM
same,IC50,L1210,400 nM
CCCCCCCCCCCCn1c2nc(=O)n(C)c(=O)c-2cc2ccccc21,IC50,KB,> 50000 nM
same,IC50,L1210,> 50000 nM
CCCn1c2nc(=O)n(C)c(=O)c-2cc2c1C(=O)C(=O)c1ccccc1-2,IC50,KB,1200 nM
same,IC50,L1210,700 nM
CCCCCCCCCCCCn1c2nc(=O)[nH]c(=O)c-2cc2c1C(=O)C(=O)c1ccccc1-2,IC50,KB,6900 nM
same,IC50,L1210,3000 nM
CCCCCCCCCCCCn1c2nc(=O)n(C)c(=O)c-2cc2c1C(=O)C(=O)c1ccccc1-2,IC50,KB,200 nM
same,IC50,L1210,300 nM
CCCCCCn1c2nc(=O)[nH]c(=O)c-2cc2c1C(=O)C(OC)=CC2=O,IC50,KB,4500 nM
same,IC50,L1210,4800 nM
CCn1c2nc(=O)n(C)c(=O)c-2cc2c1C(=O)C(=O)c1ccccc1-2,IC50,KB,300 nM
same,IC50,L1210,100 nM
CCCCCCn1c2nc(=O)n(C)c(=O)c-2cc2c1C(=O)C(=O)c1ccccc1-2,IC50,KB,800 nM
same,IC50,L1210,100 nM
CCCCCCCCCCCCn1c2nc(=O)n(-c3ccccc3)c(=O)c-2cc2c1C(=O)C(OC)=CC2=O,IC50,KB,300 nM
same,IC50,L1210,2700 nM
CCCCCCCCCCCCn1c2nc(=O)n(C)c(=O)c-2cc2c1C(=O)C(OC)=CC2=O,IC50,KB,1800 nM
same,IC50,L1210,100 nM
CCCCCCCCn1c2nc(=O)n(-c3ccccc3)c(=O)c-2cc2c1C(=O)C(=O)c1ccccc1-2,IC50,KB,22900 nM
same,IC50,L1210,3100 nM
CCCCCCn1c2nc(=O)n(-c3ccccc3)c(=O)c-2cc2c1C(=O)C(OC)=CC2=O,IC50,KB,400 nM
same,IC50,L1210,1300 nM
CCCCCCn1c2nc(=O)n(C)c(=O)c-2cc2c1C(=O)C(OC)=CC2=O,IC50,KB,600 nM
same,IC50,L1210,500 nM
CCCCn1c2nc(=O)[nH]c(=O)c-2cc2c1C(=O)C(=O)c1ccccc1-2,IC50,KB,5200 nM
same,IC50,L1210,2100 nM
CCCCCCCCCCCCn1c2nc(=O)n(-c3ccccc3)c(=O)c-2cc2c1C(=O)C(=O)c1ccccc1-2,IC50,KB,17900 nM
same,IC50,L1210,2800 nM
CCCCn1c2nc(=O)n(-c3ccccc3)c(=O)c-2cc2c1C(=O)C(=O)c1ccccc1-2,IC50,KB,28200 nM
same,IC50,L1210,4900 nM
CCCCCCCCn1c2nc(=O)[nH]c(=O)c-2cc2c1C(=O)C(OC)=CC2=O,IC50,KB,1500 nM
same,IC50,L1210,4400 nM
